SMILES strings stand for the structures. In brackets after ≈: the same amount, converted by molar mass.

For the experiment, the system named is HCT-116. Description: Cytotoxicity against human HCT116 cells after 48 hrs by sulforhodamine B assay. Type of experiment: functional, cell-based. The settings on record: HCT-116, 48 h.
As for `CSc1nn(-c2ccccc2)c2c1C(=O)NC(c1ccccc1)N2` (configuration not stated), the IC50 – broadly, the point on the concentration scale where inhibition reaches its midpoint – was 2.4 µg/mL (≈ 7.13 µM).

As to `COc1ccc(NCc2nc3c(c(SC)nn3-c3ccccc3)c(=O)[nH]2)cc1`, the IC50 is 2.7 µg/mL (≈ 6.86 µM). The IC50 values of the last two molecules are within 1.5-fold of each other.

In turn, `CSc1nn(-c2ccccc2)c2nc(CCNc3ccc(S(N)(=O)=O)cc3)[nH]c(=O)c12` had an IC50 of 2.82 µg/mL (≈ 6.18 µM).

`CSc1nn(-c2ccccc2)c2nc(CNc3ccc(S(N)(=O)=O)cc3)[nH]c(=O)c12` yielded an IC50 of 3.09 µg/mL (≈ 6.98 µM).

In turn, `CSc1nn(-c2ccccc2)c2nc(-c3cccc([N+](=O)[O-])c3)[nH]c(=O)c12` displayed an IC50 of 0.67 µg/mL (≈ 1.77 µM).

Consider `CSc1nn(-c2ccccc2)c2nc(CCNc3ccccc3)[nH]c(=O)c12`, for which it took 1.34 µg/mL (≈ 3.55 µM) to reach half-maximal inhibition (IC50). Compared with the last molecule, the IC50 is about 2-fold higher.

In the case of `CSc1nn(-c2ccccc2)c2nc(CCNC3CCCCC3)[nH]c(=O)c12`, the IC50 is 0.47 µg/mL (≈ 1.23 µM).
